Results on 24 compounds are retold here after ChEMBL document CHEMBL5375966, “Exploiting the "Hot-Spots" of Hsp70-Bim Protein-Protein Interaction to Optimize the 1-Oxo-1H-phenalene-2,3-dicarbonitrile Analogues as Specific Hsp70-Bim Inhibitors” (J Med Chem, 2023).

Each structure is given as a SMILES string. Activity calls are given as the source filed them. The rule behind the calls is not given here.

Series [1] is described as follows: Inhibition of Bim (unknown origin)- N-terminal 6His-tagged human recombinant HSP70 NBD (1 to 383 residues) expressed in Escherichia coli BL21 (DE3) protein protein interaction assessed as suppression of BimBH3-stimulated HSP70 ATPase activity.
A short description of series [2]: Induction of apoptosis in human Imatinib-resistant K562-R3 cells incubated for 24 hrs by annexin V/PI staining based flow cytometry analysis. Type of series: functional. As to conditions: Imatinib-resistant K562-R3 cell. A general note: A flow cytometer gives signals particle by particle.
Series [3] concerns K562. Put plainly: Induction of apoptosis in human K562 cells incubated for 24 hrs by annexin V/PI staining based flow cytometry analysis. The class given is functional, cell-based. Conditions: K562, 24 h.
A further series concerns HEK293. In words: Induction of apoptosis in human HEK293 cells assessed as apoptotic rate at 15 uM incubated for 24 hrs by annexin V/PI staining based flow cytometry analysis relative to control. The class given is toxicity, cell-based. Conditions: hek293, 24 h.
The test system of a further series is BV-173. In words: Induction of apoptosis in human BV-173 cells incubated for 24 hrs by annexin V/PI staining based flow cytometry analysis. As to conditions: BV-173, 24 h. The class given is functional, cell-based.
The subject of a further series is BaF3. Put plainly: Induction of apoptosis in mouse BaF3 cells assessed as apoptotic rate at 15 uM incubated for 24 hrs by annexin V/PI staining based flow cytometry analysis relative to control. The class given is toxicity, cell-based. As to conditions: baf3, 24 h.
The nature of series [4]: Inhibition of Fam-labeled BimBH3 peptide binding to N-terminal 6His-tagged human recombinant HSP70 NBD (1 to 383 residues) expressed in Escherichia coli BL21 (DE3) assessed as inhibition constant incubated for 24 hrs by fluorescence polarization assay. In general terms: Fluorescence polarisation rises when a labelled molecule tumbles more slowly, as on binding a larger partner.

Series [5] deals with K562. In words: Inhibition of HSP70-Bag3 protein protein interaction in human K562 cells at 10 uM incubated for 12 hrs by Co-IP analysis. Type of series: cell-based.
The species entered for the next series is Homo sapiens. In words: Inhibition of N-terminal 6His-tagged human recombinant HSP70 NBD (1 to 383 residues) expressed in Escherichia coli BL21 (DE3) ATPase activity.
Series [6] can be described thus: Induction of apoptosis in mouse BaF3 cells incubated for 24 hrs by annexin V/PI staining based flow cytometry analysis. The class given is toxicity, cell-based.
Series [7] in a line: Induction of apoptosis in human HEK293 cells incubated for 24 hrs by annexin V/PI staining based flow cytometry analysis. The class given is toxicity, cell-based.

One may read the EC50 as the concentration at which the effect is half-maximal. By Ki is commonly meant the dissociation constant of the complex between target and ligand, obtained from inhibition or displacement. Regarding `CN(C)CCNC1=C(C#N)C(=O)c2cccc3c(SC4CCCCC4)ccc1c23`, the inhibition result in [1] was “Active”. Also, the concentration giving a half-maximal response (EC50) in [2] turned out to be 0.45 µM; in the series on K562 [3] it was 2.4 µM; in the series with BV-173 it was 1.1 µM. Also, the Activity is listed as greater than 10% with HEK293 and less than 10% in the series with BaF3. In series [4], the inhibition constant Ki worked out at 0.57 µM.

In the case of `COC(=O)CCNC1=C(C#N)C(=O)c2cccc3c(Sc4ccc(C(C)(C)C)cc4)ccc1c23`, the inhibition entry in series [1] is “Active”. Moreover, in series [4], the Ki is greater than 20 µM.

For the compound `COC(=O)CCNC1=C(C#N)C(=O)c2cccc3c(Sc4ccc(N)cc4)ccc1c23`, the inhibition entry in [1] is “Active”. In addition, the Ki in [4] is greater than 20 µM.

Regarding `N#CC1=C(NCCC(=O)NCc2ccccc2)c2ccc(SC3CCCCC3)c3cccc(c23)C1=O`, the inhibition result in [1] is “Active”. For the same compound, the Ki in [4] is 14.4 µM.

As for `N#CC1=C(NCCC(=O)O)c2ccc(SC3CCCCC3)c3cccc(c23)C1=O`, the inhibition result in [1] was “Active”. For the same compound, the Ki in series [4] is greater than 20 µM.

As to `CCNCCNC1=C(C#N)C(=O)c2cccc3c(SC4CCCCC4)ccc1c23`, the inhibition result in [1] is “Active”. In addition, the Ki in [4] was determined as 0.72 µM.

For the compound `CCn1c(=O)/c(=C2\Sc3ccccc3N2C)s/c1=C\c1cccc[n+]1CC`, the inhibition entry in the series with K562 [5] was “Active”.

`COC(=O)CCNC1=C(C#N)C(=O)c2cccc3c(Sc4ccc(C)cc4)ccc1c23`: the inhibition entry in series [1] was “Active”. Moreover, the inhibition constant Ki in series [4] is 3.4 µM.

`COC(=O)CCNC1=C(C#N)C(=O)c2cccc3c(SC4CCCCC4)ccc1c23`: the inhibition entry in series [1] is “Active”. In addition, the EC50 in series [2] stood at 1.7 µM; in the series on K562 [3] it was 9.4 µM; in the series on BV-173, 6.1 µM. In addition, the Activity in the series on HEK293 and in the series with BaF3 was less than 10% throughout. Further, the Ki in [4] is 2.6 µM.

Turning to `COC(=O)CCNC1=C(C#N)C(=O)c2cccc3c(SCCc4ccccc4)ccc1c23`, the inhibition result in series [1] is “Active”. Further, the Ki in series [4] is greater than 20 µM.

For the compound `COC(=O)CCNC1=C(C#N)C(=O)c2cccc3c(Sc4ccc(C(C)C)cc4)ccc1c23`, the inhibition entry in series [1] was “Active”. Further, in series [4], the inhibition constant Ki was determined as 16.2 µM.

Take `COC(=O)CCNC1=C(C#N)C(=O)c2cccc3c(Sc4ccccc4)ccc1c23`: the inhibition entry in series [1] was “Active”. Further, the Ki in [4] was 4.5 µM.

For the compound `COC(=O)CCNC1=C(C#N)C(=O)c2cccc3c(Sc4ccc(Br)cc4)ccc1c23`, in [1], the inhibition entry was “Active”. Moreover, the Ki in series [4] stood at 2.5 µM.

As for `N#CC1=C(NCCN2CCN(Cc3ccccc3)CC2)c2ccc(SC3CCCCC3)c3cccc(c23)C1=O`, in series [1], the inhibition entry is “Active”. The Ki in [4] is greater than 20 µM.

With `N#CC1=C(NCCN2CCOCC2)c2ccc(SC3CCCCC3)c3cccc(c23)C1=O`, the inhibition result in series [1] was “Active”. Also, the inhibitory constant (Ki) in series [4] worked out at 1.8 µM.

As for `N#Cc1ccc(COC[C@H]2O[C@@H](n3c(NCc4ccc(Cl)c(Cl)c4)nc4c(N)ncnc43)[C@H](O)[C@@H]2O)cc1`, the inhibition result in the series filed under Homo sapiens is “Active”. Also, the EC50 in series [2] came out at 8.5 µM; in the series with K562 [3] it was 7.8 µM; with BV-173 it was 5.8 µM. Moreover, the EC50 at 24 h was 5.5 µM in series [6] and 7.7 µM in series [7]. Besides, in [4], the Ki is greater than 20 µM.

As for `CCCCNC(=O)CCNC1=C(C#N)C(=O)c2cccc3c(SC4CCCCC4)ccc1c23`, the inhibition entry in series [1] was “Active”. Also, in series [4], the Ki was 0.88 µM.

For `COC(=O)CCNC1=C(C#N)C(=O)c2cccc3c(SC4CCCC4)ccc1c23`, in series [1], the inhibition entry was “Active”. Besides, in series [4], the Ki stood at 2.2 µM.

Consider `COC(=O)CCNC1=C(C#N)C(=O)c2cccc3c(SCCO)ccc1c23`, for which the inhibition entry in series [1] was “Active”. In addition, the inhibition constant (Ki) in series [4] was greater than 20 µM.

With `COC(=O)CCNC1=C(C#N)C(=O)c2cccc3c(Sc4cccc(N)c4)ccc1c23`, the inhibition entry in series [1] was “Active”. Further, the Ki in [4] was 18.9 µM.

With `CCN(CC)CCNC1=C(C#N)C(=O)c2cccc3c(SC4CCCC4)ccc1c23`, in series [1], the inhibition entry is “Active”. In series [4], the Ki came out at 0.32 µM.

`CCOC(=O)CN1CCN(CCNC2=C(C#N)C(=O)c3cccc4c(SC5CCCCC5)ccc2c34)CC1`: in [1], the inhibition result is “Active”. Moreover, the inhibition constant (Ki) in series [4] turned out to be 4.1 µM.

As to `N#CC1=C(NCCC(=O)NC2CCCCC2)c2ccc(SC3CCCCC3)c3cccc(c23)C1=O`, the inhibition entry in series [1] was “Active”. Besides, the Ki in series [4] came out at 11 µM.

Consider `CCCCSc1ccc2c3c(cccc13)C(=O)C(C#N)=C2NCCC(=O)OC`, for which the inhibition result in series [1] is “Active”. Also, in series [4], the Ki came out at 14.5 µM.
